What was measured:
osteosarcoma = assay: Scintigraphy in osteosarcoma model, ratio (Q) of count density in the tumor to that in the contralateral tibia; assay type: in vivo, Sprague-Dawley rats; conditions: 0.01 mg i.v., 9.25 MBq Tc-99m, 4 weeks after tumor implantation
Protocol: Tc-99m-HMPD was tested on the model of osteosarcoma in Sprague-Dawley rats. […] The investigation was carried out 4 weeks after tumor implantation on a total of 30 animals. 1. Investigation schedule:
Day 1 Tc-99m-MDP (reference substance)
Scintigraphy 1, 90 and 180 minutes after injection
Storage of the scintigraphic data for the evaluation 2. Evaluation
Measurement of whole-body activity from the scintigraphic data
Ratio (Q) of the count density per unit area in the tumor to that in the contralateral tibia
Comparison of the quotient QHMPD with that for the products QMDP and QDBA-MDP.

lesion / normal bone = assay: Ratio Q of Tc-99m uptake in a lesion to uptake in normal bone (own investigations); assay type: in vivo; conditions: compared with A-EDP, DMA-MDP, EA-MDP, DEA-MDP; Q=(% Tc/g of lesion)/(% Tc/g of normal bone)
Text: Many investigations carried out to date have been devoted to the search for compounds having a more favorable uptake ratio between the lesion and normal skeleton.

bone lesions = conditions: compared with DPD and MDP; cited from earlier work
[1] = in words, cited from earlier work
[2] = Stability of Tc-99m-HMPD by gel chromatography on polyacrylamide gel (Bio Gel P-10), up to 24 h after preparation; assay type: physicochemical; conditions: for % Activity in the HMPD: eluent 0.9% NaCl
Protocol: The labeling yield of Tc-99m-HMPD was determined, and the purity and stability were tested, by thin-layer chromatographic methods, gel filtration and HPLC.
2. The stability for a period of up to 24 h after preparation was tested by gel chromatography on polyacrylamide gel (Bio Gel® P-10, manufactured by Bio-Rad, California, USA) using 0.9% NaC1 solution as eluent (FIG. 1). The proportion of the activity in the HMPD, that in the form of pertechnetate and that remaining on the column were measured (Table 1). The latter is greater than the proportion of ^99m -Tc^4+ because non-specific adsorption of technetium to the support material is always observed.

[3] = Organ distribution of Tc-99m-HMPD in the rat 2 h after injection as a function of the amount administered (Table 3); assay type: in vivo; conditions: for Bladder + urine / Blood / Bone / Kidneys / Liver / Lung / Muscle / Stomach / Thyroid: i.v., 2 h
Protocol: The product prepared as in Example 2 (pH=7) was used for the following experiment.
Organ distribution of Tc-99m-HMPD in the rat
(n = 3) 2 h after injection as a function of
the amount administered (mg) and as a % of the
injected dose per organ or tissue. The various
HMPD amounts were administered i.v. in 0.1 ml

For O=P(O)(O)CP(=O)(O)O [MDP, methanediphosphonic acid], the “Lesion quotient (Q)” value (osteosarcoma) was 1.0.

In the case of CCCCN(CCCC)C(P(=O)(O)O)P(=O)(O)O [DBA-MDP, N,N-dibutylaminomethanediphosphonic acid], the “Lesion quotient (Q)” value (osteosarcoma) is given as 1.16, the “ratio Q for uptake of Tc-99m in a lesion vs normal bone” value (lesion / normal bone) is given as “by far the highest ratios Q” and the “accumulation in the lesions” value (bone lesions) is given as “distinctly higher”. For the same molecule, the blood clearance ([1]; current state of knowledge) was “not optimal” and the bone/background ratio [1] was “relatively poor”.

With “1-hydroxy-3-methylphosphinico-1,1-propanediphosphonic acid [Tc-99m-HMPD]” the “% Tc-99m Residue on the column” value ([2]; 5 min after preparation) was 6.8%, the “% Tc-99m as pertechnetate” value ([2]; 5 min after preparation) was 0.6% and the “% Activity in the HMPD” value ([2]; 5 min after preparation) was 92.6%. For the same molecule, the “% Tc-99m Residue on the column” value ([2]; 2 h after preparation) was 7.5%, the “% Tc-99m as pertechnetate” value ([2]; 2 h after preparation) was 0.4% and the “% Activity in the HMPD” value ([2]; 2 h after preparation) was 92.1%. The “% Tc-99m Residue on the column” value ([2]; 7 h after preparation) was 4.6%, the “% Tc-99m as pertechnetate” value ([2]; 7 h after preparation) was 0.4% and the “% Activity in the HMPD” value ([2]; 7 h after preparation) was 95.0%. The “% Tc-99m Residue on the column” value ([2]; 24 h after preparation) was 5.2%, the “% Tc-99m as pertechnetate” value ([2]; 24 h after preparation) was 0.8% and the “% Activity in the HMPD” value ([2]; 24 h after preparation) was 94.0%. The product stability ([2]; summary in words) was “stable for a whole working day”, the “proportion of Tc-99m activity present in the HMPD” value ([2]; up to 24 h after preparation) was “more than 90%” and the “Lesion quotient (Q)” value (osteosarcoma) was 1.27. The “Bladder + urine” value ([3]; 0.001 mg) was 54.1 % of the injected dose per org, the Blood ([3]; 0.001 mg) was 0.7 % of the injected dose per org and the Bone ([3]; 0.001 mg) was 32.9 % of the injected dose per org. The Kidneys ([3]; 0.001 mg) was 1.51 % of the injected dose per org, the Liver ([3]; 0.001 mg) was 0.27 % of the injected dose per org and the Lung ([3]; 0.001 mg) was 0.080 % of the injected dose per org. For the same molecule, the Muscle ([3]; 0.001 mg) was 0.8 % of the injected dose per org, the Stomach ([3]; 0.001 mg) was 0.151 % of the injected dose per org and the Thyroid ([3]; 0.001 mg) was 0.008 % of the injected dose per org. For the same molecule, the “Bladder + urine” value ([3]; 0.01 mg) was 55.6 % of the injected dose per org, the Blood ([3]; 0.01 mg) was 0.4 % of the injected dose per org and the Bone ([3]; 0.01 mg) was 34.7 % of the injected dose per org. The Kidneys ([3]; 0.01 mg) was 1.05 % of the injected dose per org, the Liver ([3]; 0.01 mg) was 0.18 % of the injected dose per org and the Lung ([3]; 0.01 mg) was 0.048 % of the injected dose per org. The Muscle ([3]; 0.01 mg) was 0.6 % of the injected dose per org, the Stomach ([3]; 0.01 mg) was 0.091 % of the injected dose per org and the Thyroid ([3]; 0.01 mg) was 0.008 % of the injected dose per org. For the same molecule, the “Bladder + urine” value ([3]; 0.1 mg) was 56.9 % of the injected dose per org, the Blood ([3]; 0.1 mg) was 0.4 % of the injected dose per org and the Bone ([3]; 0.1 mg) was 32.6 % of the injected dose per org. For the same molecule, the Kidneys ([3]; 0.1 mg) was 0.94 % of the injected dose per org, the Liver ([3]; 0.1 mg) was 0.17 % of the injected dose per org and the Lung ([3]; 0.1 mg) was 0.480 % of the injected dose per org. For the same molecule, the Muscle ([3]; 0.1 mg) was 0.6 % of the injected dose per org, the Stomach ([3]; 0.1 mg) was 0.092 % of the injected dose per org and the Thyroid ([3]; 0.1 mg) was 0.011 % of the injected dose per org. For the same molecule, the “Bladder + urine” value ([3]; 1 mg) was 59.1 % of the injected dose per org, the Blood ([3]; 1 mg) was 0.8 % of the injected dose per org and the Bone ([3]; 1 mg) was 28.7 % of the injected dose per org. The Kidneys ([3]; 1 mg) was 1.03 % of the injected dose per org, the Liver ([3]; 1 mg) was 0.22 % of the injected dose per org and the Lung ([3]; 1 mg) was 0.079 % of the injected dose per org. The Muscle ([3]; 1 mg) was 1.1 % of the injected dose per org, the Stomach ([3]; 1 mg) was 0.090 % of the injected dose per org and the Thyroid ([3]; 1 mg) was 0.007 % of the injected dose per org. For the same molecule, the “liver uptake with larger administered amounts” value ([3]; in words) was “no increase in liver uptake at the expense of skeletal accumulation”.

— patent US4910012A, “Products containing Tc-99-m-ωalkylphosphinico-1-hydroxyalkane-1,1-diphosphonates for bone scintigraphy and a process for the preparation of these products” (Hoechst Aktiengesellschaft, priority 1988, dated 1990)
